Data published in patent publication US12624024B2, “EP2 antagonist compounds” (Reservoir Neuroscience, Inc., priority 2021, dated 2026).

Columns and labels:
EP2 receptor = target: T1, EP2 receptor (Homo sapiens, UniProt P43116); assay: EP2 Potency Assay (cAMP TR-FRET, CHO-K1 cells transfected with EP2 receptor, PGE2 at EC80); type: cell-based; conditions: CHO-K1 cells expressing EP2, prostaglandin E2 at EC80, read-out: EP2 Potency (IC50 category)
T1 construct: expressed in transfected cells; host or cells: CHO-K1 cells (ATCC), transient transfection with FuGENE 6
Outline: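 CHO-K1 cells transiently transfected with EP2 and seeded 24 h after transfection. IC50 from curve fit of percent inhibition versus concentration.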

[1] = Human Hepatocyte Stability; type: in vitro ADME; conditions: human hepatocytes 0.5×10^6 cells/mL, 120 min; for half-life at 1 μM: read-out: T1/2 (hepatic); for microsomal CLint at 1 μM: read-out: in vitro CLint (hepatic)
Method: The tested compound was incubated in duplicate with incubation media (Williams' Medium E with 1× GlutaMAX) containing human hepatocytes (0.5×10^6 cells/mL). These incubations were carried out at a final test concentration of 1 μM over a total incubation period of 120 minutes. Samples were taken at 0, 15, 30, 60, 90 and 120 min and the reaction was terminated by addition of acetonitrile containing internal standard (100 nM alprazolam, 200 nM labetalol, 200 nM caffeine and 200 nM diclofenac). Verapamil was used as the positive control in this study. The samples were analyzed by UPLC-MS/MS to determine the concentration of the tested compound and the percentage remaining, intrinsic clearance (in vitro CLint) and half-life (t½) values were calculated.
(§1) Chromatographic analyses were performed on a Shimadzu UPLC apparatus (Kyoto, Japan) consisting of a gradient pump (model LC-30AD), an automatic injector (model HTC PAL System) and an on-line degasser (model DGU-20A5R). Detection was a triple quadrupole tandem mass spectrometer equipped with a turbo ion spray interface (API 4000/Triple Quad 4500/Triple Quad 5500/Triple Quad 6500). Data acquisition and integration were carried out with LC-MS software (Analyst 1.6) linked directly to the LC-MS/MS system. Chromatographic separations were achieved on a XSelect Hss T3 2.5μ (2.1×30 mm) Column. The mobile phase was 0.1% formic acid in water (A) and 0.1% formic acid in acetonitrile (B). The flow rate was 1.0 mL/min and column was maintained at 40° C.
Half-life (T1/2) data is measured in minutes, and in Table B2, the data is grouped into categories of by the following rules: • T1/2 (hepatic): A=200+; B=100 to 200; C=50 to 100; and D<50.
In vitro clearance (CLint) data is measured in μL/min/mg prot, and in Table B3, the data is grouped into categories of by the following rules: • CLint (microsomal): A<5; B=5 to 10; C=10 to 20; and D=20+.

[2] = Human Liver Microsome Stability; type: in vitro ADME; conditions: human liver microsomes 0.5 mg/mL, 37° C., 60 min; for half-life at 2 μM: read-out: T1/2 (microsomal); for microsomal CLint at 2 μM: read-out: in vitro CLint (microsomal)
Method: The tested compound was incubated in duplicate with human liver microsomes (0.5 mg/mL) at 37° C. These incubations were carried out at a final test article concentration of 2 μM over a total incubation period of 60 minutes. Samples were taken at 0, 15, 30, 45 and 60 min and the reaction terminated by addition of 4 volumes of acetonitrile containing internal standard (100 nM alprazolam, 200 nM imipramine, 200 nM labetalol and 2 μM ketoprofen). Diclofenac was used as a positive control in this study. The samples were analyzed by UPLC-MS/MS to determine the concentration of the test compound and the percent remaining, intrinsic clearance (in vitro CLint) and half-life (T1/2) values were calculated.
as §1
Half-life (T1/2) data is measured in minutes, and in Table B2, the data is grouped into categories of by the following rules: • T1/2 (microsomal): A=100+; B=50 to 100; C=20 to 50; D<20.
In vitro clearance (CLint) data is measured in μL/min/mg prot, and in Table B2, the data is grouped into categories of by the following rules: • CLint (microsomal): A<20; B=20 to 50; C=50 to 100; and D=100+.

T1 sequence (P43116 whole entry): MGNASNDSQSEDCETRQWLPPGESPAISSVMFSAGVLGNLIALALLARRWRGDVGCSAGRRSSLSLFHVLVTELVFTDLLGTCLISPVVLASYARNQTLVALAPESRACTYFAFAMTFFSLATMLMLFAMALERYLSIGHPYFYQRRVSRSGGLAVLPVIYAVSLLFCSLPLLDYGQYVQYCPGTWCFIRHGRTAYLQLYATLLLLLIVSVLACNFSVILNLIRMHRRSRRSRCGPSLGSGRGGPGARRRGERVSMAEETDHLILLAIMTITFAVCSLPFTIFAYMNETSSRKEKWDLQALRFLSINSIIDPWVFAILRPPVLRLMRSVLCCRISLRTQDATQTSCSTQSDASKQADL

Compound | IC50 (EP2 receptor) | half-life at 1 μM [1] | microsomal CLint at 1 μM [1] | half-life at 2 μM [2] | microsomal CLint at 2 μM [2]
Cc1c(CN2CCOc3c(Cl)cc(-n4ccc5cc(F)ccc54)cc3C2)cc[nH]c1=O [Compound 194, 4-{[9-chloro-7-(5-fluoroindol-1-yl)-3,5-dihydro-2H-1,4-benzoxazepin-4-yl]methyl}-3-methyl-1H-pyridin-2-one] | < 100 nM | 1.67 to 3.33 h | 10 to 20 µL/min/mg | – | –
C[C@@H]1COc2c(Cl)cc(-n3ccc4cc(F)ccc43)cc2CN1Cc1cnc(N)nc1 [Compound 11, 5-{[9-chloro-7-(5-fluoroindol-1-yl)-3-methyl-3,5-dihydro-2H-1,4-benzoxazepin-4-yl]methyl}pyrimidin-2-amine] | < 100 nM | 0.833 to 1.67 h | > 20 µL/min/mg | < 0.333 h | > 100 µL/min/mg
Cc1c(CN2CCOc3c(Cl)cc(-n4ccc5cc(F)ccc54)cc3C2)cnn1C [Compound 106, 9-chloro-4-((1,5-dimethyl-1H-pyrazol-4-yl)methyl)-7-(5-fluoro-1H-indol-1-yl)-2,3,4,5-tetrahydrobenzo[f][1,4]oxazepane] | 500 to 1000 nM | – | – | < 0.333 h | > 100 µL/min/mg
Fc1ccc2c(ccn2-c2cc(Cl)c3c(c2)CN(Cc2cc[nH]c(=S)c2)CCO3)c1 [Compound 189, 4-{[9-chloro-7-(5-fluoroindol-1-yl)-3,5-dihydro-2H-1,4-benzoxazepin-4-yl]methyl}-1H-pyridine-2-thione] | 100 to 500 nM | 0.833 to 1.67 h | > 20 µL/min/mg | – | –
O=C1CC(CN2CCOc3c(Cl)cc(-n4ccc5cc(F)ccc54)cc3C2)CCN1 (centres unmarked) [Compound 200, 4-{[9-chloro-7-(5-fluoroindol-1-yl)-3,5-dihydro-2H-1,4-benzoxazepin-4-yl]methyl}piperidin-2-one] | 1000 to 5000 nM | – | – | 0.333 to 0.833 h | 20 to 50 µL/min/mg
COc1ncc(CN2CCOc3c(Cl)cc(-n4ccc5cc(F)ccc54)cc3C2)cn1 [Compound 13] | 100 to 500 nM | – | – | < 0.333 h | 50 to 100 µL/min/mg
O=c1cc(CN2CCOc3c(Cl)cc(-n4ccc5cc(F)ccc54)cc3C2)cc[nH]1 [Ref, 4-((9-chloro-7-(5-fluoro-1H-indol-1-yl)-2,3-dihydrobenzo[f][1,4]oxazepin-4(5H)-yl)methyl)pyridin-2(1H)-one, reference compound] | – | 1.67 to 3.33 h | 5 to 10 µL/min/mg | 0.333 to 0.833 h | 20 to 50 µL/min/mg
Fc1ccc2c(ccn2-c2cc(Cl)c3c(c2)CN(Cc2ccnc(C4COC4)c2)CCO3)c1 [Compound 187, 9-chloro-7-(5-fluoroindol-1-yl)-4-{[2-(oxetan-3-yl)pyridin-4-yl]methyl}-3,5-dihydro-2H-1,4-benzoxazepine] | 100 to 500 nM | < 0.833 h | > 20 µL/min/mg | < 0.333 h | > 100 µL/min/mg
O=c1cc(CN2CCOc3c(Cl)cc(-n4ccc5cc(F)ccc54)cc3C2)cco1 [Compound 203, 4-{[9-chloro-7-(5-fluoroindol-1-yl)-3,5-dihydro-2H-1,4-benzoxazepin-4-yl]methyl}pyran-2-one] | 100 to 500 nM | – | – | < 0.333 h | 50 to 100 µL/min/mg
Nc1ncc(CN2CCOc3c(Cl)cc(-n4ccc5cc(F)ccc54)cc3C2)cn1 [Compound 146] | < 100 nM | 1.67 to 3.33 h | 10 to 20 µL/min/mg | < 0.333 h | 50 to 100 µL/min/mg
Cc1[nH]c(=O)ncc1CN1CCOc2c(Cl)cc(-n3ccc4cc(F)ccc43)cc2C1 [Compound 156] | < 100 nM | 1.67 to 3.33 h | 5 to 10 µL/min/mg | – | –
C[C@@H]1COc2c(Cl)cc(-n3ccc4cc(F)ccc43)cc2CN1Cc1cnc(=O)[nH]c1 [Compound 9] | 100 to 500 nM | < 0.833 h | > 20 µL/min/mg | 0.833 to 1.67 h | 20 to 50 µL/min/mg
COc1ncc(CN2CCOc3c(Cl)cc(-n4ccc5c(F)c(F)ccc54)cc3C2)cn1 [Compound 25] | 100 to 500 nM | 1.67 to 3.33 h | 10 to 20 µL/min/mg | – | –
O=c1ncc(CN2CCOc3c(Cl)cc(-n4ccc5cc(F)ccc54)cc3C2)c[nH]1 [Compound 58] | < 100 nM | > 3.33 h | 5 to 10 µL/min/mg | > 1.67 h | < 20 µL/min/mg
COCc1ncc(CN2CCOc3c(Cl)cc(-n4ccc5cc(F)ccc54)cc3C2)cn1 [Compound 142] | 100 to 500 nM | > 3.33 h | 5 to 10 µL/min/mg | – | –
Nc1cnc(CN2CCOc3c(Cl)cc(-n4ccc5cc(F)ccc54)cc3C2)cn1 [Compound 170] | 500 to 1000 nM | – | – | 0.333 to 0.833 h | 20 to 50 µL/min/mg
O=C1NC=C(CN2CCOc3c(Cl)cc(-n4ccc5cc(F)ccc54)cc3C2)CN1 [Compound 202] | 500 to 1000 nM | – | – | 0.833 to 1.67 h | 20 to 50 µL/min/mg
O=C(O)c1ncc(CN2CCOc3c(Cl)cc(-n4ccc5cc(F)ccc54)cc3C2)cn1 [Compound 144, 5-{[9-chloro-7-(5-fluoroindol-1-yl)-3,5-dihydro-2H-1,4-benzoxazepin-4-yl]methyl}pyrimidine-2-carboxylic acid] | < 100 nM | > 3.33 h | < 5 µL/min/mg | – | –
O=c1cc(CN2CCOc3c(Cl)cc(-n4ccc5cc(F)ccc54)cc3C2)cn[nH]1 [Compound 169, 5-{[9-chloro-7-(5-fluoroindol-1-yl)-3,5-dihydro-2H-1,4-benzoxazepin-4-yl]methyl}-2H-pyridazin-3-one] | < 100 nM | 1.67 to 3.33 h | 5 to 10 µL/min/mg | – | –
O=c1[nH]ccc(CN2CCOc3c(Cl)cc(-n4ccc5cc(F)ccc54)cc3C2)c1F [Compound 193] | < 100 nM | 0.833 to 1.67 h | 10 to 20 µL/min/mg | – | –
O=C1CC(CN2CCOc3c(Cl)cc(-n4ccc5cc(F)ccc54)cc3C2)=NN1 [Compound 198, 5-{[9-chloro-7-(5-fluoroindol-1-yl)-3,5-dihydro-2H-1,4-benzoxazepin-4-yl]methyl}-2,4-dihydropyrazol-3-one] | 1000 to 5000 nM | – | – | 0.333 to 0.833 h | 50 to 100 µL/min/mg
O=C(O)c1cc(CN2CCOc3c(Cl)cc(-n4ccc5cc(F)ccc54)cc3C2)ccn1 [Compound 185, 4-{[9-chloro-7-(5-fluoroindol-1-yl)-3,5-dihydro-2H-1,4-benzoxazepin-4-yl]methyl}pyridine-2-carboxylic acid] | 100 to 500 nM | > 3.33 h | < 5 µL/min/mg | – | –
